Each structure is given as a SMILES string.

In the assay the test system is L-6 rat myocyte cytotoxicity, plate reader. In words: L6 myocyte viability loss – cell-based, plate reader, cherry-pick, cytotoxicity control, dose response (AID 651896).

With `C[C@@H]1CN([C@@H](C)CO)C(=O)c2cccc(NC(=O)c3ccncc3)c2O[C@H]1CN(C)Cc1ccc(Oc2ccccc2)cc1`, the IC50 is 10.8 µM.

Broadly, the IC50 is the concentration at which inhibition is half-maximal.

(Values after PubChem BioAssay AID651896 (Broad Institute, 2012).)
